In PubChem BioAssay AID256 (DTP/NCI, 2004):
Values joined by “and” are separate entries in the source; they are usually repeats but may differ in a detail not shown here. Equal entries are not always repeated. Toxic doses and inconclusive results are not listed.

System: CD2F1 mice, L1210 leukemia ip, survival T/C
Assay: NCI In Vivo Anticancer Drug Screen. Data for tumor model L1210 Leukemia (intraperitoneal) in CD2F1 (CDF1) mice
Conditions: higher = longer survival
In short: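 Read-out first: treated-group measurement over vehicle-control measurement, expressed as a ratio. Animals bore a transplanted tumor line and were dosed with compound or vehicle.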

[1] = endpoint: mean survival time, dose: 50.0 mg/kg/injection, schedule: Q01DX009 (ip), vehicle: saline
[2] = endpoint: mean survival time, dose: 100.0 mg/kg/injection, schedule: Q01DX001 (ip), vehicle: saline
[3] = endpoint: mean survival time, dose: 100.0 mg/kg/injection, schedule: Q01DX009 (ip), vehicle: saline
[4] = endpoint: mean survival time, dose: 100.0 mg/kg/injection, schedule: Q04DX003 (ip), vehicle: saline
[5] = endpoint: mean survival time, dose: 200.0 mg/kg/injection, schedule: Q01DX001 (ip), vehicle: saline
[6] = endpoint: mean survival time, dose: 200.0 mg/kg/injection, schedule: Q01DX009 (ip), vehicle: saline
[7] = endpoint: mean survival time, dose: 200.0 mg/kg/injection, schedule: Q04DX003 (ip), vehicle: saline
[8] = endpoint: mean survival time, dose: 100.0 mg/kg/injection, schedule: Q01DX001 (ip), vehicle: saline with Tween-80
[9] = endpoint: mean survival time, dose: 200.0 mg/kg/injection, schedule: Q01DX001 (ip), vehicle: saline with Tween-80
[10] = endpoint: mean survival time, dose: 400.0 mg/kg/injection, schedule: Q01DX009 (ip), vehicle: saline
[11] = endpoint: mean survival time, dose: 100.0 mg/kg/injection, schedule: Q04DX003 (ip), vehicle: saline with Tween-80
[12] = endpoint: mean survival time, dose: 200.0 mg/kg/injection, schedule: Q04DX003 (ip), vehicle: saline with Tween-80
[13] = endpoint: mean survival time, dose: 400.0 mg/kg/injection, schedule: Q04DX003 (ip), vehicle: saline with Tween-80

## O=C(O)C(O)C(O)C(O)C(O)C(=O)O.[NH-]C1CCCCC1[NH-].[Pt+2] (stereo not given)
endpoint: median survival time, dose: 6.25 mg/kg/injection, schedule: Q04DX003 (ip), vehicle: saline
  T/C: 116 % of control and 112 % of control
endpoint: median survival time, dose: 12.5 mg/kg/injection, schedule: Q04DX003 (ip), vehicle: saline
  T/C: 121 % of control and 123 % of control
endpoint: median survival time, dose: 25.0 mg/kg/injection, schedule: Q04DX003 (ip), vehicle: saline
  T/C: 123 % of control
endpoint: median survival time, dose: 50.0 mg/kg/injection, schedule: Q04DX003 (ip), vehicle: saline
  T/C: 151 % of control and 152 % of control
endpoint: median survival time, dose: 100.0 mg/kg/injection, schedule: Q04DX003 (ip), vehicle: saline
  T/C: 167 % of control and 187 % of control

## C[n+]1c(/C=C/c2ccc([N+](=O)[O-])cc2)ccc2ccccc21
endpoint: mean survival time, dose: 6.25 mg/kg/injection, schedule: Q01DX009 (ip), vehicle: saline with Tween-80
  T/C: 98 % of control
endpoint: mean survival time, dose: 12.5 mg/kg/injection, schedule: Q01DX009 (ip), vehicle: saline with Tween-80
  T/C: 102 % of control
endpoint: mean survival time, dose: 25.0 mg/kg/injection, schedule: Q04DX003 (ip), vehicle: saline with Tween-80
  T/C: 96 % of control

## O=C(O)C(O)C(O)C1[O][Sb][O]C1CO (stereo not given)
endpoint: mean survival time, dose: 50.0 mg/kg/injection, schedule: Q01DX001 (ip), vehicle: saline
  T/C: 97 % of control
[1]
  T/C: 95 % of control
endpoint: mean survival time, dose: 50.0 mg/kg/injection, schedule: Q04DX003 (ip), vehicle: saline
  T/C: 91 % of control
[2]
  T/C: 93 % of control
[3]
  T/C: 96 % of control
[4]
  T/C: 92 % of control
[5]
  T/C: 98 % of control
[6]
  T/C: 96 % of control
[7]
  T/C: 92 % of control

## CN(C)C1CCc2ccc3ccccc3c2C1=O (stereo not given)
endpoint: mean survival time, dose: 12.5 mg/kg/injection, schedule: Q01DX009 (ip), vehicle: saline
  T/C: 105 % of control
endpoint: mean survival time, dose: 25.0 mg/kg/injection, schedule: Q01DX009 (ip), vehicle: saline
  T/C: 102 % of control
[1]
  T/C: 105 % of control

## CC1(C)OCC(C(O)C(OC(=O)c2ccccc2)C2COC(C)(C)O2)O1 (stereo not given)
[8]
  T/C: 106 % of control
[9]
  T/C: 94 % of control
endpoint: mean survival time, dose: 400.0 mg/kg/injection, schedule: Q01DX001 (ip), vehicle: saline with Tween-80
  T/C: 105 % of control

## O=C(c1ccccc1Cl)c1cccc2ccccc12
[3]
  T/C: 110 % of control
[6]
  T/C: 96 % of control
[10]
  T/C: 94 % of control

## CCOP(=S)(NCCOC)OCC
[11]
  T/C: 101 % of control
[12]
  T/C: 101 % of control
[13]
  T/C: 100 % of control

## NNC(=O)CCCCCCCCCCCCCO
endpoint: mean survival time, dose: 50.0 mg/kg/injection, schedule: Q01DX001 (ip), vehicle: saline with Tween-80
  T/C: 98 % of control
[8]
  T/C: 101 % of control
[9]
  T/C: 101 % of control

## COC1OC(COC(c2ccccc2)(c2ccccc2)c2ccccc2)C(OC)C(OC)C1NC(C)=O (stereo not given)
endpoint: mean survival time, dose: 100.0 mg/kg/injection, schedule: Q01DX001 (ip), vehicle: Klucel (hydroxypropylcellulose) (HPC)
  T/C: 91 % of control
endpoint: mean survival time, dose: 200.0 mg/kg/injection, schedule: Q01DX001 (ip), vehicle: Klucel (hydroxypropylcellulose) (HPC)
  T/C: 96 % of control
endpoint: mean survival time, dose: 400.0 mg/kg/injection, schedule: Q01DX001 (ip), vehicle: Klucel (hydroxypropylcellulose) (HPC)
  T/C: 96 % of control

## C[S+](C)(=O)/C=C(\[O-])Nc1ccc(Cl)c(Cl)c1
[11]
  T/C: 103 % of control
[12]
  T/C: 90 % of control
[13]
  T/C: 91 % of control

## CCCC(C)OC(=O)c1ccc([N+](=O)[O-])cc1 (stereo not given)
[2]
  T/C: 100 % of control
[5]
  T/C: 110 % of control
endpoint: mean survival time, dose: 400.0 mg/kg/injection, schedule: Q01DX001 (ip), vehicle: saline
  T/C: 93 % of control

## OCCN1CCNC1=S
[3]
  T/C: 97 % of control
[4]
  T/C: 97 % of control
[6]
  T/C: 97 % of control
[7]
  T/C: 92 % of control
[10]
  T/C: 102 % of control
endpoint: mean survival time, dose: 400.0 mg/kg/injection, schedule: Q04DX003 (ip), vehicle: saline
  T/C: 98 % of control

## O=C(COc1cc(Cl)c(Cl)cc1Cl)OCCN(CCOC(=O)COc1cc(Cl)c(Cl)cc1Cl)C(=O)COc1ccc(Cl)cc1
endpoint: mean survival time, dose: 100.0 mg/kg/injection, schedule: Q04DX003 (ip), vehicle: other
  T/C: 93 % of control
endpoint: mean survival time, dose: 200.0 mg/kg/injection, schedule: Q04DX003 (ip), vehicle: other
  T/C: 96 % of control
endpoint: mean survival time, dose: 400.0 mg/kg/injection, schedule: Q04DX003 (ip), vehicle: other
  T/C: 107 % of control
